Data from patent US9402839B2, “Selective targeting agents for mitochondria” (University of Pittsburgh—Of the Commonwealth System of …, priority 2006, dated 2016).

Assays:
[1] = system: rat ileal mucosal permeability; test: Intestinal mucosal permeability assay (FD4 clearance, everted gut sacs) after pressure-controlled hemorrhagic shock; assay type: in vivo; details: intraluminal
Protocol: Intestinal mucosal permeability assay. Animals were allowed access to water but not food for 24 h prior to the experiment in order to decrease the volume of intestinal contents. The rats were instrumented as described above.
A midline laparotomy was performed and the small intestine was exteriorized from the duodenojejunal junction to the ileocecal valve. A small incision was made on the antimesenteric aspect of the proximal small intestine and saline solution (1.5 ml) was injected. The bowel was ligated proximally and distally to the incision with 4-0 silk (LOOK, Reading, Pa.).
The small intestine was compressed gently in aboral direction along its length to displace intestinal contents into the colon. Starting 5 cm from the ileocecal valve, the ileum was partitioned into six contiguous water-tight segments. Each segment was 3 cm long and was bounded proximally and distally by constricting circumferential 4-0 silk sutures. Care was taken to ensure that the vascular supply to intestine was not compromised, and each segment was well-perfused.
Two randomly selected segments in each rat were injected with 0.3 ml of vehicle and served as “no treatment” controls. In order to fill the segments, a small incision was made and the solution was injected using a Teflon catheter (ABBOCATH 16Ga, ABBOTT LABORATORIES).
The remaining four other segments were injected with solutions containing either 4-hydroxy-2,2,6,6-tetramethylpiperidine-N-oxyl (TEMPOL) or one of the Gramicidin S-based compounds. Four different final concentrations of TEMPOL in normal saline were evaluated: 0.1, 1, 5 and 20 mM. The hemigramicidin-based compounds were dissolved in a mixture of dimethylsulfoxide (DMSO) and normal saline (1:99 v/v) and injected at final concentrations of 0.1, 1, 10 or 100 μM.
After the segments were loaded with saline or the test compounds, the bowel was replaced inside the peritoneal cavity and the abdominal incision was temporarily closed using Backhaus forceps.
After a 5 min stabilization period, hemorrhagic shock was induced by withdrawing blood via the jugular catheter. MAP was maintained at 30±3 mm Hg for 2 hours. The shed blood was re-infused as needed to maintain MAP within the desired range.
(§1) After 2 h of shock, the animals were euthanized with an intracardiac KCl bolus injection. The ileum was rapidly excised from the ileocecal valve to the most proximal gut segment. The tips of each segment were discarded. In order to assay caspases 3 and 7 activity and phospholipids peroxidation, mucosa samples were collected from gut segments immediately after hemorrhage and stored at −80° C. For permeability measurements, each segment was converted into an everted gut sac, as previously described by Wattanasirichaigoon et al., see Wattanasirichaigoon, S. et al., Effect of mesenteric ischemia and reperfusion or hemorrhagic shock on intestinal mucosal permeability and ATP content in rats, SHOCK, 12:127-133 (1999).
Briefly, as per the Wattanasirichaigoon protocol referenced above, the sacs were prepared in ice-cold modified Krebs-Henseleit bicarbonate buffer (“KHBB”), pH 7.4. One end of the gut segment was ligated with a 4-0 silk suture; the segment was then everted onto a thin plastic rod. The resulting gut sac was mounted on a Teflon catheter (Abbocath 16GA, Abbot Laboratories) connected to a 3 ml plastic syringe containing 1.5 ml of KHBB. The sac was suspended in a beaker containing KHBB plus fluorescein-isothiocyanate labeled dextran (average molecular mass 4 kDa; FD4; 0.1 mg/ml). This solution was maintained at 37° C., and oxygenated by bubbling with a gas mixture (O2 95%/CO2 5%). After 30 min, the fluid within the gut sac was collected. The samples were cleared by centrifugation at 2000 g for 5 min.
Fluorescence of FD4 in the solution inside the beaker and within each gut sac was measured using a fluorescence spectrophotometer (LS-50, PERKIN-ELMER, Palo Alto, Calif.) at an excitation wavelength of 492 nm and an emission wavelength of 515 nm. […]

caspases 3 and 7 = test: Caspases 3 and 7 activity assay in rat gut mucosa homogenate after hemorrhagic shock; assay type: in vivo; details: intraluminal 10 μM versus vehicle
Protocol: as §1
Caspases 3 and 7 activity assay. Caspases 3 and 7 activity was measured using a commercially available assay kit, CASPASE GLO™ 3/7 assay kit (PROMEGA, Madison, Wis.). […] At the end of incubation period, the luminescence of each sample was measured using a plate reading chemiluminometer (ML1000, DYNATECH LABORATORIES, Horsham, Pa.). Activity of caspases 3 and 7 was expressed as luminescence intensity (arbitrary units per mg protein). Protein concentrations were determined using the BIORAD assay (BIO-RAD LABORATORIES, Inc., Hercules, Calif.). […]

[2] = system: phospholipids in intestinal mucosa; test: Assay for peroxidation of phospholipids in gut mucosa after hemorrhagic shock; assay type: in vivo, rat; details: intraluminal 10 μM, 2 h HS
Protocol: as §1
Assay for peroxidation of phospholipids. Gut mucosal samples were homogenized. Lipids were extracted from homogenates using the Folch procedure, see M. Lees and G. H. Sloan-Stanley, A simple method for isolation and purification of total lipids from animal tissue, J. BIOL. CHEM. 226:497-509 (1957), and resolved by 2D HPTLC (High Performance Thin Layer Chromatography) as previously described, see Kagan, V. E. et al., A role for oxidative stress in apoptosis: Oxidation and externalization of phosphatidylserine is required for macrophage clearance of cell undergoing Fas-mediated apoptosis, J. IMMUMOL. 169:487-489 (2002). Spots of phospholipids were scraped from HPTLC plates and phospholipids were extracted from silica. Lipid phosphorus was determined by a micro-method, see Bottcher, C. J. F. et al., A rapid and sensitive sub-micro phosphorus determination, ANAL. CHIM. ACTA 24: 203-204 (1961).
Oxidized phospholipids were hydrolyzed by pancreatic phospholipase A2 (2 U/μl) in 25 mM phosphate buffer containing 1 mM CaCl2, 0.5 mM EDTA and 0.5 mM sodium dodecyl sulfate (SDS) (pH 8.0, at room temperature for 30 min). Fatty acid hydroperoxides formed were determined by fluorescence HPLC of resorufin stoichiometrically formed during their microperoxidase 11-catalized reduction in presence of Amplex Red (for 40 min at 4° C.) (8). Fluorescence HPLC (ECLIPSE XDB-C18 column, 5 μm, 150×4.6 mm, mobile phase was composed of 25 mM disodium phosphate buffer (pH 7.0)/methanol (60:40 v/v); excitation wavelength 560 nm, emission wavelength 590 nm) was performed on a SHIMADZU LC-100AT HPLC system equipped with fluorescence detector (RF-10Ax1) and autosampler (SIL-10AD).
In the subsequent series of in vivo studies, the affect of intraluminal XJB-5-131 on hemorrhage-induced peroxidation of phospholipids in intestinal mucosa was examined. […] In a preferred embodiment, 0.3 mL of test solution filled the lumen of each ileal compartment. […]

Question: How did the “lowest effective concentration against ileal mucosal hyperpermeability” value [1] turn out when `CC(C)C[C@@H](/C=C/[C@H](Cc1ccccc1)C(=O)N1CCC[C@H]1C(=O)N[C@H](C(=O)N[C@@H](CCCNC(=O)OCc1ccccc1)C(=O)NC1CC(C)(C)N([O])C(C)(C)C1)C(C)C)NC(=O)OC(C)(C)C` [XJB-5-131] was run?
Answer: Its value is 1 µM.

Question: What about the “protection against hemorrhagic shock-induced ileal mucosal hyperpermeability” value ([1]; 0.1-100 μM, 2 h shock) of the same compound?
Answer: The value was “significantly ameliorated”.

Question: What about the “potency relative to TEMPOL” value ([1]; gut mucosal protection) of the same compound?
Answer: The value was about 1000 fold.

Question: And the “hemorrhagic shock-induced mucosal hyperpermeability relative to control value” ([1]; control segments loaded with vehicle)?
Answer: Its value is “approximately 60%”.

Question: What about the “caspase 3 and 7 activity in ileal mucosa after hemorrhagic shock” value (caspases 3 and 7) of the same compound?
Answer: Its value is “significantly decreased”.

Question: What about the “hemorrhage-induced peroxidation of cardiolipin (CL)” value [2] of the same compound?
Answer: The value was “significantly ameliorated”.

Question: And the “peroxidation of phosphatidylcholine (PC)” value [2]?
Answer: Its value is “no effect”.

Question: And the “peroxidation of phosphatidylethanolamine (PE)” value [2]?
Answer: Its value is “small effect”.

Question: And the “peroxidation of phosphatidylserine (PS)” value [2]?
Answer: Its value is “no effect”.
